Reference: patent EP4737449A1 (Changchun Genescience Pharmaceutical Co., Ltd., priority 2023, dated 2025)
pIC50: −log10 of the molar value. Where two headings read alike, the source gives them in different places.

Assays:
[1] = target: CYP 3A4 enzyme in human liver microsomes (Homo sapiens, UniProt P08684); assay: CYP3A4 inhibition experiment in human liver microsomes
[2] = system: human-derived lung cancer LU5269 subcutaneous xenograft; assay: Efficacy in human-derived lung cancer LU5269 subcutaneous xenograft model; type: in vivo, NOD/SCID mice; details: PO, QD*21
Procedure: Tumor tissues were collected from LU5269 lung cancer xenograft model bearing mice, cut into tumor masses with a diameter of 2-3 mm, and seeded subcutaneously in the right anterior scapula of NOD/SCID mice.
Before administration, all animals were weighed and tumor volume was measured using a vernier caliper. When the tumor grew to have an average volume of about 140 mm^3, group-based drug administration was performed based on tumor size (vehicle: 0.2% HPC + 0.5% Tween 80). Since tumor volume can affect the effectiveness of treatment, random grouping design was used to group the mice according to tumor volume to ensure that the tumor volumes in different groups were similar. Tumor volume calculation formula: Tumor volume (mm^3) = 1/2 × (a ×b^2) (wherein a denotes the long diameter and b denotes the short diameter).
Table 12 Route, dose and regimen of administration in the subcutaneous xenograft model

[3] = Pharmacokinetic study in SD rats; type: in vivo; details: rat, plasma; for AUC(0-t) at 24 h / AUC(0-t): read-out: AUC0-24h
Procedure: On the day of administration, the test sample was prepared using a 2% HPC + 5% solutol aqueous solution vehicle formula, and the drug solution was prepared and kept ready for use.
The PO group was given the designated dose. The animals in the oral administration group were fasted overnight, allowed free access to water, and returned to food 3 hours after administration.
The animals were weighed before administration, and the dose was calculated based on the body weight. The drug was administered once via PO on the day of administration. After administration in the PO group, blood was collected from the jugular vein at 0.083 h, 0.25 h, 0.5 h, 1.0 h, 2.0 h, 4.0 h, 6.0 h, 8.0 h and 24 h, about 200 µL each time, placed in EDTA-K2 anticoagulation blood collection tubes, centrifuged at 4000 rpm for 10 min (4°C), and plasma was separated within 1 h. The plasma was drawn into labeled EP tubes (the label should at least indicate the subject code, animal number, collection time, collection date, etc.), and stored at -80°C for testing. The process from blood collection to centrifugation was carried out in ice bath. The concentration of the test sample in SD rat plasma was detected using validated LC-MS/MS.

[4] = CYP 3A4M IC50, human liver microsomes, midazolam as substrate
[5] = CYP 3A4T IC50, human liver microsomes, testosterone as substrate

Sequence of CYP 3A4 enzyme in human liver microsomes (P08684 whole entry): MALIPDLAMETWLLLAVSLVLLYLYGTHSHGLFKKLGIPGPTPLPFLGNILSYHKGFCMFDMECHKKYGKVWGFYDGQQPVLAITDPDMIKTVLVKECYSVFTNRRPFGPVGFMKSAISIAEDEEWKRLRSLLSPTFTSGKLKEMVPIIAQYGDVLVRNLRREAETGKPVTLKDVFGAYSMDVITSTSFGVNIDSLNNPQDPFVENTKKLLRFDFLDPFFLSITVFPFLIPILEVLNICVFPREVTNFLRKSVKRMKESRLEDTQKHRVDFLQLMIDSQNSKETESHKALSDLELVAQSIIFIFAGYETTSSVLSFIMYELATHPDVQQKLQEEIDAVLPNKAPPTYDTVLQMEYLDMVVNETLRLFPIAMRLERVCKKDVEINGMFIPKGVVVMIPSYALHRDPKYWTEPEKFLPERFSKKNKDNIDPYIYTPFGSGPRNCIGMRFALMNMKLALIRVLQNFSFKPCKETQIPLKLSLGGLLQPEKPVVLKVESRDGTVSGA

## CCn1ncc(C(=O)NCC#Cc2nn3c(N[C@@H]4CCN(C)C[C@@H]4F)cccc3c2CC(F)(F)F)c1N [Compound 261, 5-amino-1-ethyl-N-[3-(7-{[(3S,4R)-3-fluoro-1-methylpiperidin-4-yl]amino}-3-(2,2,2-trifluoroethyl)pyrazolo[1,5-a]pyridin-2-yl)prop-2-yn-1-yl]-1H-pyrazole-4-carboxamide]
[1]; [4]
  pIC50: 4.81
[1]; [5]
  pIC50: 5.13

## CN1CC[C@@H](Nc2cccc3c(CC(F)(F)F)c(C#CCNC(=O)c4cnn(C(C)(C)C)c4N)nn23)[C@@H](F)C1 [Compound 047]
[2]; 50mpk
  TGI: 82%
[2]; 75mpk
  TGI: 111%
[2]; 100 mpk
  TGI: 119%
[2]; 150mpk
  TGI: 119%
[3]; 50 mg/kg, po 50 mpk
  Cmax: 13200 ng/mL
  AUC(0-t) at 24 h: 113 µg·h/mL
[3]; 300 mg/kg, po 300 mpk
  Cmax: 32800 ng/mL
  AUC(0-t) at 24 h: 431 µg·h/mL
[1]; [4]
  pIC50: 4.68
[1]; [5]
  pIC50: 4.76

## CN1CC[C@@H](Nc2cccc3c(CC(F)(F)F)c(C#CCNC(=O)c4cnn(C(C)(C)C)c4)nn23)[C@@H](F)C1 [Compound 001, 1-tert-butyl-N-[3-(7-{[(3S,4R)-3-fluoro-1-methylpiperidin-4-yl]amino}-3-(2,2,2-trifluoroethyl)pyrazolo[1,5-a]pyridin-2-yl)prop-2-yn-1-yl]-1H-pyrazole-4-carboxamide]
[1]; [4]
  pIC50: 4.58
[1]; [5]
  pIC50: 4.57

## CNC(=O)c1ccc(NCC#Cc2cc3c(N[C@@H]4CCN(C)C[C@@H]4F)cccc3n2CC(F)(F)F)c(OC)c1 [Control compound, reference compound]
[2]; 100 mpk
  TGI: 119%
[3]; 50 mg/kg, po 50 mpk
  Cmax: 11500 ng/mL
  AUC(0-t): 148 µg·h/mL
[3]; 300 mg/kg, po 300 mpk
  Cmax: 25400 ng/mL
  AUC(0-t): 416 µg·h/mL
[1]; [4]
  pIC50: 5.03
[1]; [5]
  pIC50: 5.37
